Source: ChEMBL document CHEMBL5113544, “Development of Brain-Tumor-Targeted Benzothiazole-Based Boron Complex for Boron Neutron Capture Therapy” (ACS Med Chem Lett, 2022)

Experiments:
[1] = Cytotoxicity against HEK293 cells assessed as cell survival at upto 100 uM incubated for 22 hrs by cell counting kit analysis relative to control; type: toxicity, cell-based; conditions: human, read-out: Survival
[2] = Cytotoxicity against human U-87 MG cells assessed as cell survival at 100 uM incubated for 22 hrs by cell counting kit analysis relative to control; type: functional, U-87MG ATCC; conditions: read-out: Survival
[3] = Effective permeability of the compound in pH 7.4 at 25 uM incubated for 4 hrs by PAMPA-BBB assay; type: ADME; conditions: read-out: Peff
[4] = Octanol/water partition coefficient, logP of compound at 10 mg incubated for 24 hrs by ICP-MS analysis; type: physicochemical
HEK293 = assay: Cytotoxicity against HEK293 cells assessed as reduction in cell survival at higher concentrations incubated for 22 hrs by cell counting kit analysis; type: toxicity, cell-based; conditions: human, hek293, 22 h
[5] = Cytotoxicity against HEK293 cells incubated for 22 hrs by cell counting kit analysis; type: toxicity, cell-based; conditions: human
[6] = Cytotoxicity against human U-87 MG cells incubated for 22 hrs by cell counting kit analysis; type: functional, cell-based, U-87MG ATCC
[7] = Biodistribution in blood of BALB/c nude mouse xenografted with human U-87 MG cells assessed as boron concentration at 500 mg/kg, ip measured 4 hrs post injection by ICP-MS analysis; type: ADME, organism-based; conditions: in vivo

SMILES: OB(O)c1ccc(-c2nc3ccccc3s2)cc1
- viability at 22 h, up to 100 µM [1]: > 95%
- viability at 100 µM [2]: < 43%
- Papp at 4 h, 25 µM [3]: 59.8 ×10⁻⁶ cm/s
- logP at 24 h [4]: 0.32
- Activity (HEK293): Toxic
- IC50 at 22 h [5]: 265 µM
- IC50 [6]: 112 µM
- Drug uptake [7]: Active
